Experiments:
[1] = system: CDF1 mice immunized with sheep red blood cells (SRBC); assay: Delayed Type Hypersensitivity (D.T.H.) footpad test in normal mice immunized with SRBC; format: in vivo; conditions: for Increase in footpad thickness: 24 h after SRBC challenge; for T/C (%): footpad thickness increase vs control = 100%
Experimental: Effect of actinonin on the cellular immunity was investigated by measuring the Delayed Type Hypersensitivity (D.T.H.) (see […] and T. E. Miller: "J. Exp. Med.", 139, 1529-1539 (1974)) using mice immunized with sheep red blood cells (SRBC) as the antigen inoculated to the footpad of the mice. Thus, 10^8 SRBC suspended in 0.05 ml of physiological saline was inoculated by subcutaneous injection into a subdermal site of a hind footpad of CDF1 mice (6 mice per group, female, 8-weeks old) to make immunization. At the time of this immunization, an aqueous solution containing 5 mg/kg, 0.5 mg/kg, 0.05 mg/kg or 0.005 mg/kg of actinonin was administered intraperitoneally at a single dose to each test mice. 4 Days after the immunization, 10^8 SRBC in 0.05 ml of physiological saline were injected subcutaneously into the other hind footpad of the test mice for secondary challenge of the D.T.H. response. 24 Hours after the challenge, the thickness (in mm) of the hind footpad having received the challenge of SRBC was measured with vernier caliper. At the same time, the thickness of footpad of control mice which had received the injection of the SRBC and physiological saline without the administration of the test compound was also measured in each mouse. The increase in footpad thickness of the animals treated was calculated by the following equation: [formula] The effect of actinonin on the DTH response was evaluated by the following equation: [formula] […] In this way, the cell-mediated immunity potentiating effect of the test compound was evaluated. For comparison purpose, bestatin was also tested in the same manner as above.

gram-positive bacteria = conditions: against gram-positive bacteria; cited from earlier work
[2] = system: mice bearing Ascites Sarcoma 180 tumor; assay: D.T.H. response to picryl chloride (ear thickness) in tumor-bearing mice; format: in vivo; conditions: for Increase in ear thickness: 24 h after picryl chloride challenge; for T/C (%): ear thickness increase vs control = 100%
Experimental: In mice bearing Ascites Sarcoma 180 tumor, the effect of actinonin on the D.T.H. response to picryl chloride was investigated. 10^6 Cells of Ascites Sarcoma 180 were transplanted intraperitoneally into CDF1 mice (12-week-old, female, 5 mice per group). The day of this transplantation was designated as Day 0. […] Then, 5.0 mg/kg, 0.5 mg/kg, 0.05 mg/kg or 0.005 mg/kg of actinonin dissolved in physiological saline was orally administered once daily from Day 1 to Day 8, except that on Days 5 and 6 the test compound was not administered. During this period of Day 1 to Day 8, the control group of mice (untreated) was given physiological saline only. On day 8, the right ear was challenged with 20 μl of a 1% olive oil solution of picryl chloride which was absorbed to an absorbent cotton mass cut to a size of 10 mm×5 mm×1 mm. Twenty-four hours after the challenge, the thickness of the ear was measured with a dial gauge. On the other hand, the control animals (untreated) were challenged on Day 8 with picryl chloride and physiological saline in accordance with the same procedure, but without having been treated with the test compound, and the thickness of the ear of the control animals was measured in the same way. The increase in the thickness of ear for the control group of mice was evaluated to be 100%. The increase (T) in the thickness of the ear for the group of mice treated with the test compound was compared with that (C) for the control group of mice to evaluate the rate (T/C, %) of the increase in the thickness of the ear, whereby the cellular immunity-potentiating activity of the compound under test was estimated.

mice = assay: Acute toxicity test in mice by intravenous injection; format: in vivo; conditions: i.v. dosage of 400 mg/kg
Experimental: Acute toxicity tests in mice by intravenous injection have shown that no deaths are caused by the actinonin compound of the formula (I) at an i.v. dosage of 400 mg/kg. […] The actinonin compound of the formula (I) is therefore useful as an immunopotentiator and anti-tumor immunomodulator or as adjuvants to various chemotherapeutic agents for use in the treatment of carcinomas.

[3] = 0.5 mg/kg i.p. single dose at immunization
[4] = 0.5 mg/kg orally once daily Day 1 to Day 8 (not Days 5, 6)

Row | SMILES | Increase in footpad thickness ([1]; 0.005 mg/kg i.p. single dose at immunization) [× 0.1 mm] | T/C (%) ([1]; 0.005 mg/kg i.p. single dose) | Increase in footpad thickness ([1]; 0.05 mg/kg i.p. single dose at immunization) [× 0.1 mm] | T/C (%) ([1]; 0.05 mg/kg i.p. single dose) | Increase in footpad thickness [1, 3] [× 0.1 mm] | T/C (%) ([1]; 0.5 mg/kg i.p. single dose) | Increase in footpad thickness ([1]; 5 mg/kg i.p. single dose at immunization) [× 0.1 mm] | T/C (%) ([1]; 5 mg/kg i.p. single dose) | Antibacterial activity (gram-positive bacteria) | Increase in ear thickness ([2]; 0.005 mg/kg orally once daily Day 1 to Day 8 (not Days 5, 6)) | T/C (%) ([2]; 0.005 mg/kg orally once daily) | Increase in ear thickness ([2]; 0.05 mg/kg orally once daily Day 1 to Day 8 (not Days 5, 6)) | T/C (%) ([2]; 0.05 mg/kg orally once daily) | Increase in ear thickness [2, 4] | T/C (%) ([2]; 0.5 mg/kg orally once daily) | Increase in ear thickness ([2]; 5 mg/kg orally once daily Day 1 to Day 8 (not Days 5, 6)) | T/C (%) ([2]; 5 mg/kg orally once daily) | Deaths in acute toxicity test (mice)
1 | CCCCC[C@H](CC(=O)NO)C(=O)N[C@H](C(=O)N1CCC[C@H]1CO)C(C)C [Actinonin] | 9.2 ± 1.15 | 107 | 10.4 ± 1.40 | 121 | 11.4 ± 1.80 | 133 | 11.9 ± 1.44 | 138 | exhibits antibacterial activity | 4.70 ± 0.67 × 10^-3 cm | 96.9 | 6.80 ± 0.84 × 10^-3 cm | 140.2 | 7.08 ± 1.66 × 10^-3 cm | 146.0 | 4.60 ± 1.19 × 10^-3 cm | 94.8 | no deaths
2 | CC(C)C[C@H](NC(=O)[C@@H](O)[C@H](N)Cc1ccccc1)C(=O)O [Bestatin, reference compound] |  |  |  |  | 12.8 ± 1.47 | 149 |  |  |  |  |  |  |  | 6.75 ± 1.51 × 10^-3 cm | 139.2 |  |  | 

— patent publication US4663342A, “Pharmaceutical composition and method for immunopotentiation” (Zaidan Hojin Biseibutsu Kagaku Kenkyu Kai, priority 1984, dated 1987)
